Patent publication US20260022143A1, “Cyclic Peptide Inhibitors of IL-23” (JANSSEN PHARMACEUTICA NV, priority 2022, published 2026)
Positions of bridges follow the written chain, without caps; N, C: chain ends. Non-standard residues stand in square brackets, D forms with d. Residues, ends and D or L forms follow the SMILES beside them. *: point of attachment. Me3N+(CH2)2O(CH2)2O(CH2)2CO = C[N+](C)(C)CCOCCOCCC(=O)*; Phe(4-guanidino) = N=C(N)Nc1ccc(C[C@H](N)C(=O)O)cc1; Trp(7-Me) = Cc1cccc2c(C[C@H](N)C(=O)O)c[nH]c12; Lys(Me3) = C[N+](C)(C)CCCC[C@H](N)C(=O)O; Dab(NMeAc) = CC(=O)N(C)CC[C@H](N)C(=O)O; 2Nal = N[C@@H](Cc1ccc2ccccc2c1)C(=O)O; AEF = NCCOc1ccc(C[C@H](N)C(=O)O)cc1; 3Pal = N[C@@H](Cc1cccnc1)C(=O)O; Cit = NC(=O)NCCC[C@H](N)C(=O)O; Lys(Me) = CNCCCC[C@H](N)C(=O)O; Pen = CC(C)(S)[C@H](N)C(=O)O; X44 = c1cc[n+](CCOCCOCC*)cc1; Thp = NC1(C(=O)O)CCOCC1; X3 = C[N+](C)(C)CCCCC*; Sar = CNCC(=O)O

Assays:
[1] = target: T1, IL-23R (Homo sapiens, UniProt Q5VWK5); assay: IL23R Reporter Assay; type: cell-based; details: HEK293 cells containing IL-23R, IL-12RP1 and STAT-inducible firefly luciferase reporter; 10 ng/mL IL-23 (EC90); 5 h at 37° C.; read-out: IL23R Reporter Assay
T1 construct: host or cells: HEK293
T1 sequence (Q5VWK5 24-629): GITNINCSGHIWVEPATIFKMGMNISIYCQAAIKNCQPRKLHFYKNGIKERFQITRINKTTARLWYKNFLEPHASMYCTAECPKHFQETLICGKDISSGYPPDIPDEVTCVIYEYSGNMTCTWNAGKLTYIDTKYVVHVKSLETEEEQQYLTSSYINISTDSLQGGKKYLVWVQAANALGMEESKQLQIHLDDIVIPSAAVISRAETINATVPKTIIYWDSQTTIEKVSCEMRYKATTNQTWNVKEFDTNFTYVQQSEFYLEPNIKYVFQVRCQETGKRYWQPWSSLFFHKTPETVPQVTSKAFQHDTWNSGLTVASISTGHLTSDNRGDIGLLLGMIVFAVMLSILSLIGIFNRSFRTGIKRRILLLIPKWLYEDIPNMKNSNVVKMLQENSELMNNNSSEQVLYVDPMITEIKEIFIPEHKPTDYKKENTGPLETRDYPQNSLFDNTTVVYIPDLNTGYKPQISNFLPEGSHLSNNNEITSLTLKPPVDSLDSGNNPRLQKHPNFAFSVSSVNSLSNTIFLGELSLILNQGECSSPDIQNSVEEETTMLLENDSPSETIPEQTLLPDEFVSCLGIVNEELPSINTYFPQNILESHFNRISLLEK

[2] = Exposed Polar Surface Area (EPSA); type: physicochemical; details: SFC on Chirex 3014 column; sample 1 mM DMSO stock; read-out: EPSA
Method in brief: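 EPSA, in Å^2, is read from SFC retention time through a linear relationship established with eight calibration standards. Separation uses a Chirex 3014 stationary phase, 35 °C, 14 MPa back pressure, and a 5–60% methanol/ammonium formate modifier gradient in CO2.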

SMILES | IC50 [1] [nM] | EPSA [2] [A^2]
CC(=O)N(C)CCCC[C@@H]1NC(=O)[C@H](Cc2c[nH]c3c(C)cccc23)NC(=O)[C@H]([C@@H](C)O)NC(=O)[C@H](CC(=O)N(C)C)NC(=O)[C@@H](NC(=O)CCOCCOCC[N+](C)(C)C)C(C)(C)SSC(C)(C)[C@@H](C(=O)N[C@@H](Cc2ccc(OCCOCCOCC[n+]3ccccc3)cc2)C(=O)N[C@@H](Cc2ccc3ccccc3c2)C(=O)NC2(C(=O)N[C@@H](CCCCN(C)C(C)=O)C(=O)N[C@@H](CC(N)=O)C(=O)N[C@@H](Cc3cccnc3)C(=O)N(C)CC(=O)N(C)C)CCOCC2)NC1=O [compound 297, cPEG3aCO-Pen(3)-N(N(Me)2)-T-7MeW-K(NMeAc)-Pen(3)-NPyPEG3F-2Nal-THP-K(NMeAc)-N-3Pya-Sar-CON(Me)2] ({Me3N+(CH2)2O(CH2)2O(CH2)2CO}-[Pen]D(NMe2)T[Trp(7-Me)][Lys(Me)](Ac)[Pen]Y(X44)[2Nal][Thp][Lys(Me)](Ac)N[3Pal][Sar]-NMe2; disulfide 1-6 (inferred)) | 1.8 | 153
CNC(=O)C[C@@H]1NC(=O)[C@@H](NC(=O)CCOCCOCC[N+](C)(C)C)C(C)(C)SSC(C)(C)[C@@H](C(=O)N[C@@H](Cc2ccc(OCCCCC[N+](C)(C)C)cc2)C(=O)N[C@@H](Cc2ccc3ccccc3c2)C(=O)NC2(C(=O)N[C@@H](CCCCN(C)C(C)=O)C(=O)N[C@@H](CC(N)=O)C(=O)N[C@@H](Cc3cccnc3)C(=O)N(C)CC(=O)N(C)C)CCOCC2)NC(=O)[C@H](CCCCN(C)C(C)=O)NC(=O)[C@H](Cc2c[nH]c3c(C)cccc23)NC(=O)[C@H]([C@@H](C)O)NC1=O [compound 300, cPEG3aCO-Pen(3)-N(N(Me))-T-7MeW-K(NMeAc)-Pen(3)-TMAPF-2Nal-THP-K(NMeAc)-N-3Pya-Sar-CON(Me)2] ({Me3N+(CH2)2O(CH2)2O(CH2)2CO}-[Pen]D(NHMe)T[Trp(7-Me)][Lys(Me)](Ac)[Pen]Y(X3)[2Nal][Thp][Lys(Me)](Ac)N[3Pal][Sar]-NMe2; disulfide 1-6) | 2.1 | 153
CC(=O)N(C)CCCC[C@@H]1NC(=O)[C@H](Cc2c[nH]c3c(C)cccc23)NC(=O)[C@H]([C@@H](C)O)NC(=O)[C@H](CC(=O)N(C)C)NC(=O)[C@@H](NC(=O)CCOCCOCC[N+](C)(C)C)C(C)(C)SSC(C)(C)[C@@H](C(=O)N[C@@H](Cc2ccc(OCCCCC[N+](C)(C)C)cc2)C(=O)N[C@@H](Cc2ccc3ccccc3c2)C(=O)NC2(C(=O)N[C@@H](CCN(C)C(C)=O)C(=O)N[C@@H](CC(N)=O)C(=O)N[C@@H](Cc3cccnc3)C(=O)N(C)CC(=O)N(C)C)CCOCC2)NC1=O [compound 301, cPEG3aCO-Pen(3)-N(N(Me)2)-T-7MeW-K(NMeAC)-Pen(3)-TMAPF-2Nal-THP-Dab(NMeAc)-N-3Pya-Sar-CON(Me)2] ({Me3N+(CH2)2O(CH2)2O(CH2)2CO}-[Pen]D(NMe2)T[Trp(7-Me)][Lys(Me)](Ac)[Pen]Y(X3)[2Nal][Thp][Dab(NMeAc)]N[3Pal][Sar]-NMe2; disulfide 1-6) | 0.73 | 153
CC(=O)N(C)CCCC[C@@H]1NC(=O)[C@H](Cc2c[nH]c3c(C)cccc23)NC(=O)[C@H]([C@@H](C)O)NC(=O)[C@H](CC(=O)N(C)C)NC(=O)[C@@H](NC(=O)CCOCCOCC[N+](C)(C)C)C(C)(C)SSC(C)(C)[C@@H](C(=O)N[C@@H](Cc2ccc(NC(=N)N)cc2)C(=O)N[C@@H](Cc2ccc3ccccc3c2)C(=O)NC2(C(=O)N[C@@H](CCCCN(C)C(C)=O)C(=O)N[C@@H](CC(N)=O)C(=O)N[C@@H](Cc3cccnc3)C(=O)N(C)CC(=O)N(C)C)CCOCC2)NC1=O [compound 304, cPEG3aCO-Pen(3)-N(N(Me)2)-T-7MeW-K(NMeAc)-Pen(3)-F(4G)-2Nal-THP-K(NMeAc)-N-3Pya-Sar-CON(Me)2] ({Me3N+(CH2)2O(CH2)2O(CH2)2CO}-[Pen]D(NMe2)T[Trp(7-Me)][Lys(Me)](Ac)[Pen][Phe(4-guanidino)][2Nal][Thp][Lys(Me)](Ac)N[3Pal][Sar]-NMe2; disulfide 1-6) | 1.4 | 164
CC(=O)NCCCC[C@@H]1NC(=O)[C@H](Cc2c[nH]c3c(C)cccc23)NC(=O)[C@H]([C@@H](C)O)NC(=O)[C@H](CC(=O)N(C)C)NC(=O)[C@@H](NC(=O)CCOCCOCC[N+](C)(C)C)C(C)(C)SSC(C)(C)[C@@H](C(=O)N[C@@H](Cc2ccc(OCCCCC[N+](C)(C)C)cc2)C(=O)N[C@@H](Cc2ccc3ccccc3c2)C(=O)NC2(C(=O)N[C@@H](CCN(C)C(C)=O)C(=O)N[C@@H](CC(N)=O)C(=O)N[C@@H](Cc3cccnc3)C(=O)N(C)CC(=O)N(C)C)CCOCC2)NC1=O [compound 308, cPEG3aCO-Pen(3)-N(N(Me)2)-T-7MeW-K(Ac)-Pen(3)-TMAPF-2Nal-THP-Dab(NMeAc)-N-3Pya-Sar-CON(Me)2] ({Me3N+(CH2)2O(CH2)2O(CH2)2CO}-[Pen]D(NMe2)T[Trp(7-Me)]K(Ac)[Pen]Y(X3)[2Nal][Thp][Dab(NMeAc)]N[3Pal][Sar]-NMe2; disulfide 1-6) | 2 | 154
CC(=O)N(C)CCCC[C@@H]1NC(=O)[C@H](Cc2c[nH]c3c(C)cccc23)NC(=O)[C@H]([C@@H](C)O)NC(=O)[C@H](CC(=O)N(C)C)NC(=O)[C@@H](NC(=O)CCOCCOCC[N+](C)(C)C)C(C)(C)SSC(C)(C)[C@@H](C(=O)N[C@@H](Cc2ccc(OCCN)cc2)C(=O)N[C@@H](Cc2ccc3ccccc3c2)C(=O)NC2(C(=O)N[C@@H](CCCCN(C)C(C)=O)C(=O)N[C@@H](CC(N)=O)C(=O)N[C@@H](Cc3cccnc3)C(=O)N(C)CC(=O)N(C)C)CCOCC2)NC1=O [compound 320, cPEG3aCO-Pen(3)-N(N(Me)2)-T-7MeW-K(NMeAc)-Pen(3)-AEF-2Nal-THP-K(NMeAc)-N-3Pya-Sar-CON(Me)2] ({Me3N+(CH2)2O(CH2)2O(CH2)2CO}-[Pen]D(NMe2)T[Trp(7-Me)][Lys(Me)](Ac)[Pen][AEF][2Nal][Thp][Lys(Me)](Ac)N[3Pal][Sar]-NMe2; disulfide 1-6) | 0.95 | 162

The next lines start with the values.

IC50 [1] [nM] | EPSA [2] [A^2] | SMILES
0.85 | 157 | CC(=O)N(C)CCCC[C@@H]1NC(=O)[C@H](Cc2c[nH]c3c(C)cccc23)NC(=O)[C@H]([C@@H](C)O)NC(=O)[C@H](CC(=O)N(C)C)NC(=O)[C@@H](NC(=O)CCOCCOCC[N+](C)(C)C)C(C)(C)SSC(C)(C)[C@@H](C(=O)N[C@@H](Cc2ccc(OCCCCC[N+](C)(C)C)cc2)C(=O)N[C@@H](Cc2ccc3ccccc3c2)C(=O)NC2(C(=O)N[C@@H](CCCCN(C)C(C)=O)C(=O)N[C@@H](CC(N)=O)C(=O)N[C@@H](Cc3cccnc3)C(=O)N(C)CC(N)=O)CCOCC2)NC1=O [compound 326, cPEG3aCO-Pen(3)-N(N(Me)2)-T-7MeW-K(NMeAc)-Pen(3)-TMAPF-2Nal-THP-K(NMeAc)-N-3Pya-Sar-CONH2] ({Me3N+(CH2)2O(CH2)2O(CH2)2CO}-[Pen]D(NMe2)T[Trp(7-Me)][Lys(Me)](Ac)[Pen]Y(X3)[2Nal][Thp][Lys(Me)](Ac)N[3Pal][Sar]-NH2; disulfide 1-6)
1.2 | 157 | CC(=O)N(C)CCCC[C@@H]1NC(=O)[C@H](Cc2c[nH]c3c(C)cccc23)NC(=O)[C@H]([C@@H](C)O)NC(=O)[C@H](CC(=O)N(C)C)NC(=O)[C@@H](NC(=O)CCOCCOCC[N+](C)(C)C)C(C)(C)SSC(C)(C)[C@@H](C(=O)N[C@@H](Cc2ccc(OCCCCC[N+](C)(C)C)cc2)C(=O)N[C@@H](Cc2ccc3ccccc3c2)C(=O)NC2(C(=O)N[C@@H](CCCNC(N)=O)C(=O)N[C@@H](CC(N)=O)C(=O)N[C@@H](Cc3cccnc3)C(=O)N(C)CC(=O)N(C)C)CCOCC2)NC1=O [compound 327, cPEG3aCO-Pen(3)-N(N(Me)2)-T-7MeW-K(NMeAc)-Pen(3)-TMAPF-2Nal-THP-Cit-N-3Pya-Sar-CON(Me)2] ({Me3N+(CH2)2O(CH2)2O(CH2)2CO}-[Pen]D(NMe2)T[Trp(7-Me)][Lys(Me)](Ac)[Pen]Y(X3)[2Nal][Thp][Cit]N[3Pal][Sar]-NMe2; disulfide 1-6)
1.2 | 159 | CC(=O)N(C)CCCC[C@@H]1NC(=O)[C@H](Cc2c[nH]c3c(C)cccc23)NC(=O)[C@H]([C@@H](C)O)NC(=O)[C@H](CCCC[N+](C)(C)C)NC(=O)[C@@H](NC(=O)CCOCCOCC[N+](C)(C)C)C(C)(C)SSC(C)(C)[C@@H](C(=O)N[C@@H](Cc2ccc(OCCCCC[N+](C)(C)C)cc2)C(=O)N[C@@H](Cc2ccc3ccccc3c2)C(=O)NC2(C(=O)N[C@@H](CCCCN(C)C(C)=O)C(=O)N[C@@H](CC(N)=O)C(=O)N[C@@H](Cc3cccnc3)C(=O)N(C)CC(=O)N(C)C)CCOCC2)NC1=O [compound 328, cPEG3aCO-Pen(3)-K(Me)3-T-7MeW-K(NMeAc)-Pen(3)-TMAPF-2Nal-THP-K(NMeAc)-N-3Pya-Sar-CON(Me)2] ({Me3N+(CH2)2O(CH2)2O(CH2)2CO}-[Pen][Lys(Me3)]T[Trp(7-Me)][Lys(Me)](Ac)[Pen]Y(X3)[2Nal][Thp][Lys(Me)](Ac)N[3Pal][Sar]-NMe2; disulfide 1-6)
